{"source": "patent US20050197350A1", "about": "“Novel quinoline, tetrahydroquinazoline, and pyrimidine derivatives and methods of treatment related to the use thereof” (TAISHO PHARMACEUTICAL CO., LTD., priority 2003, published 2005)", "data": [{"system": "MCH receptors", "experiment": "MCH receptor activity class (method not given)", "conditions": "MCH receptor activity class 1-3 (percent of control at 10^-7 M or IC50)", "values": [{"smiles": "CN(C)c1nc(N[C@H]2CC[C@@H](CNC(=O)Nc3ccc(Cl)cc3C(F)(F)F)CC2)nc2c1CCCC2", "note": "[compound 2479]", "class": "3 (Class 3 The value of percent of control at 10^−7 M was more than 60% or the value of IC50 was more than 200 nM.)"}, {"smiles": "CCc1ccccc1NC(=O)NC[C@H]1CC[C@@H](Nc2nc3c(c(N(C)C)n2)CCCC3)CC1", "note": "[compound 2469]", "class": "3 (Class 3 The value of percent of control at 10^−7 M was more than 60% or the value of IC50 was more than 200 nM.)"}, {"smiles": "CN(C)c1cc(N[C@H]2CC[C@@H](CNC(=O)NCc3ccccc3Cl)CC2)nc2ccccc12", "note": "[compound 2375]", "class": "3 (Class 3 The value of percent of control at 10^−7 M was more than 60% or the value of IC50 was more than 200 nM.)"}, {"smiles": "CN(C)c1cc(N[C@H]2CC[C@@H](NC(=S)NCc3cccc(Cl)c3)CC2)nc2ccccc12", "note": "[compound 2292]", "class": "3 (Class 3 The value of percent of control at 10^−7 M was more than 60% or the value of IC50 was more than 200 nM.)"}]}, {"system": "MCH receptors", "experiment": "MCH receptor activity class (method not given)", "conditions": "MCH receptor; class by percent of control at 10^-7 M or IC50", "values": [{"smiles": "CN(C)c1cc(N[C@H]2CC[C@@H](NC(=O)c3cc(Cl)cc(Cl)c3)CC2)nc2ccccc12", "note": "[compound 30]", "class": "2 (Class 2: The value of percent of control at 10^−7 M was from 40% to 60% or the value of IC′50 was from 50 nM to 200 nM.)"}, {"smiles": "CN(C)c1nc(N[C@H]2CC[C@@H](NC(=S)NC3CCCCC3)CC2)nc2c1CCCC2", "note": "[compound 1931]", "class": "3 (Class 3 The value of percent of control at 10^−7 M was more than 60% or the value of IC50 was more than 200 nM.)"}, {"smiles": "CN(C)c1nc(N[C@H]2CC[C@@H](NC(=S)Nc3cccc(F)c3)CC2)nc2c1CCCC2", "note": "[compound 1984]", "class": "3 (Class 3 The value of percent of control at 10^−7 M was more than 60% or the value of IC50 was more than 200 nM.)"}, {"smiles": "COC(=O)c1cc(NC(=O)N[C@H]2CC[C@@H](Nc3nc4c(c(N(C)C)n3)CCCC4)CC2)cc(C(=O)OC)c1", "note": "[compound 1911]", "class": "3 (Class 3 The value of percent of control at 10^−7 M was more than 60% or the value of IC50 was more than 200 nM.)"}]}, {"system": "MCH receptors", "experiment": "MCH receptor activity class (method not given)", "conditions": "activity class per percent of control at 10^-7 M or IC50", "values": [{"smiles": "COc1cc(CN[C@H]2CC[C@@H](Nc3cc(N(C)C)c4ccccc4n3)CC2)cc(I)c1O", "note": "[compound 1102]", "class": "3 (Class 3 The value of percent of control at 10^−7 M was more than 60% or the value of IC50 was more than 200 nM.)"}]}, {"system": "MCH receptors", "experiment": "MCH receptor activity class (method not given)", "conditions": "class 1-3 by percent of control at 10^-7 M or IC50", "values": [{"smiles": "CN(C)c1nc(N[C@H]2CC[C@@H](CNC(=O)c3cccc(Cl)c3)CC2)nc2c1CCCC2", "note": "[compound 586]", "class": "3 (Class 3 The value of percent of control at 10^−7 M was more than 60% or the value of IC50 was more than 200 nM.)"}, {"smiles": "CN(C)c1nc(N[C@H]2CC[C@@H](NC(=O)c3sc(Cl)c(Cl)c3Cl)CC2)nc2c1CCCC2", "note": "[compound 568]", "class": "3 (Class 3 The value of percent of control at 10^−7 M was more than 60% or the value of IC50 was more than 200 nM.)"}, {"smiles": "CN(C)c1nc(N[C@H]2CC[C@@H](NC(=O)c3cc(-c4ccc(Cl)cc4)oc3C(F)(F)F)CC2)nc2c1CCCC2", "note": "[compound 576]", "class": "3 (Class 3 The value of percent of control at 10^−7 M was more than 60% or the value of IC50 was more than 200 nM.)"}, {"smiles": "CN(C)c1nc(N[C@H]2CC[C@@H](CNC(=O)c3ccc(Br)cc3)CC2)nc2c1CCCC2", "note": "[compound 584]", "class": "3 (Class 3 The value of percent of control at 10^−7 M was more than 60% or the value of IC50 was more than 200 nM.)"}]}, {"system": "MCH receptors", "experiment": "MCH receptor activity class (method not given)", "conditions": "class by percent of control at 10^-7 M or IC50", "values": [{"smiles": "CCCCc1ccc(NC(=O)N[C@H]2CC[C@@H](Nc3nc4c(c(N(C)C)n3)CCCC4)CC2)c(C)c1", "note": "[compound 1735]", "class": "3 (Class 3 The value of percent of control at 10^−7 M was more than 60% or the value of IC50 was more than 200 nM.)"}, {"smiles": "CCSC(C(=O)N[C@H]1CC[C@@H](Nc2cc(N(C)C)c3ccccc3n2)CC1)(c1ccccc1)c1ccccc1", "note": "[compound 734]", "class": "3 (Class 3 The value of percent of control at 10^−7 M was more than 60% or the value of IC50 was more than 200 nM.)"}, {"smiles": "CN(C)c1ccnc(N[C@H]2CC[C@@H](NC(=O)c3cc(C(C)(C)C)nn3C)CC2)n1", "note": "[compound 304]", "class": "3 (Class 3 The value of percent of control at 10^−7 M was more than 60% or the value of IC50 was more than 200 nM.)"}, {"smiles": "COc1cc(NC(=O)N[C@H]2CC[C@@H](Nc3nccc(N(C)C)n3)CC2)cc(OC)c1OC", "note": "[compound 2239, N-(cis-4-{[4-(dimethylamino)pyrimidin-2-yl]amino}cyclohexyl)-N′-(3,4,5-trimethoxyphenyl)urea]", "class": "1 (Class 1: The value of percent of control at 10^−7 M was less than 40% or the value of IC50 was less than 50 nM.)"}, {"smiles": "CN(C)c1nc(N[C@H]2CC[C@@H](NC(=O)Nc3ccccc3Cc3ccccc3)CC2)nc2c1CCCC2", "note": "[compound 1851]", "class": "3 (Class 3 The value of percent of control at 10^−7 M was more than 60% or the value of IC50 was more than 200 nM.)"}, {"smiles": "Cc1cccc(C(C)(C)C)c1NC(=O)N[C@H]1CC[C@@H](Nc2cc(N(C)C)c3ccccc3n2)CC1", "note": "[compound 2113, N-(2-tert-butyl-6-methylphenyl)-N′-(cis-4-{[4-(dimethylamino)quinolin-2-yl]amino}cyclohexyl)urea]", "class": "1 (Class 1: The value of percent of control at 10^−7 M was less than 40% or the value of IC50 was less than 50 nM.)"}, {"smiles": "CCOC(=O)[C@H](CC(C)C)NC(=O)N[C@H]1CC[C@@H](Nc2nccc(N(C)C)n2)CC1", "note": "(relative stereo) [compound 2183]", "class": "3 (Class 3 The value of percent of control at 10^−7 M was more than 60% or the value of IC50 was more than 200 nM.)"}, {"smiles": "CN(C)c1nc(N[C@H]2CC[C@@H](NC(=O)Nc3ccccc3Oc3ccccc3)CC2)nc2c1CCCC2", "note": "[compound 1864]", "class": "3 (Class 3 The value of percent of control at 10^−7 M was more than 60% or the value of IC50 was more than 200 nM.)"}, {"smiles": "CCOc1cc(CNC[C@H]2CC[C@@H](Nc3nc4c(c(N(C)C)n3)CCCC4)CC2)ccc1OC", "note": "[compound 1376]", "class": "1 (Class 1: The value of percent of control at 10^−7 M was less than 40% or the value of IC50 was less than 50 nM.)"}, {"smiles": "COc1ccc(NC(=O)N[C@H]2CC[C@@H](Nc3nc4c(c(N(C)C)n3)CCCC4)CC2)c([N+](=O)[O-])c1", "note": "[compound 1893]", "class": "3 (Class 3 The value of percent of control at 10^−7 M was more than 60% or the value of IC50 was more than 200 nM.)"}]}, {"system": "MCH receptors", "experiment": "MCH receptor activity class (method not given)", "conditions": "class by percent of control at 10^−7 M or IC50", "values": [{"smiles": "COc1ccc([C@H](C)NC(=O)[C@H]2CC[C@@H](Nc3ncc(C)c(N(C)C)n3)CC2)cc1", "note": "[compound 2777, cis-4-{[4-(dimethylamino)-5-methylpyrimidin-2-yl]amino}-N-[(1S)-1-(4-methoxyphenyl)ethyl]cyclohexanecarboxamide]", "class": "1 (Class 1: The value of percent of control at 10^−7 M was less than 40% or the value of IC50 was less than 50 nM.)"}, {"smiles": "Cc1cc(N(C)C)nc(N[C@H]2CC[C@@H](C(=O)N[C@H](C)c3ccc(F)cc3)CC2)n1", "note": "[compound 2804]", "class": "2 (Class 2: The value of percent of control at 10^−7 M was from 40% to 60% or the value of IC′50 was from 50 nM to 200 nM.)"}, {"smiles": "COc1cc(OC)cc(C(=O)N[C@H]2CC[C@@H](CNc3ncc(C)c(N(C)C)n3)CC2)c1", "note": "[compound 2716, N-[cis-4-({[4-(dimethylamino)-5-methylpyrimidin-2-yl]amino}methyl)cyclohexyl]-3,5-dimethoxybenzamide]", "class": "2 (Class 2: The value of percent of control at 10^−7 M was from 40% to 60% or the value of IC′50 was from 50 nM to 200 nM.)"}, {"smiles": "Cc1cnc(N[C@H]2CC[C@@H](NC(=O)c3cccc(Br)c3)CC2)nc1N(C)C", "note": "[compound 2898, 3-bromo-N-(cis-4-{[4-(dimethylamino)-5-methylpyrimidin-2-yl]amino}cyclohexyl)benzamide]", "class": "1 (Class 1: The value of percent of control at 10^−7 M was less than 40% or the value of IC50 was less than 50 nM.)"}]}]}
